Values quoted from earlier work in PMC7904743, “WIDOCK: a reactive docking protocol for virtual screening of covalent inhibitors” (Journal of Computer-Aided Molecular Design, 2021).
Read-outs that look alike come from different tables or passages of the source.

Assays:
OTUB2 = conditions: experimental actives if % labeling higher than 50%; cited from earlier work
NUDT7 = conditions: protein labeling at 200 μM; experimental actives if % labeling higher than 50%; cited from earlier work
[1] = thiol reactivity, cited from earlier work
[2] = natural log of average rate constant k
[3] = natural logarithm of average rate constant
[4] = natural log of average rate constant

Row | SMILES | OTUB2 % labeling (OTUB2) [%] | NUDT7 % labeling (NUDT7) [%] | ln(avg k) [1, 2] | ln(avg k) [1, 3] | ln(avg k) [1, 4]
1 | CC(C)C(C)(C#N)NC(=O)CCl (centres unmarked) [PCM-0102626, CC(C)C(C)(C#N)NC(=O)CCl] | 0 | 0 | -15.951 | -15.951 | 
2 | Cc1ccc(S(=O)(=O)N2CCN(C(=O)CCl)CC2)c(C)c1 [PCM-0102628, Cc1ccc(S(=O)(=O)N2CCN(C(=O)CCl)CC2)c(C)c1] | 0 | 0 | -15.546 | -15.546 | 
3 | Cc1nc(CN2CCN(C(=O)CCl)CC2)cs1 [PCM-0102630, Cc1nc(CN2CCN(C(=O)CCl)CC2)cs1] | 0 | 0 | -15.690 | -15.690 | 
4 | CN(Cc1cccs1)C(=O)CCl [PCM-0102636, CN(Cc1cccs1)C(=O)CCl] | 0 | 17 | -15.483 | -15.483 | 
5 | Cc1cc(N2CCN(C(=O)CCl)CC2)nc(C(C)C)n1 [PCM-0102638, Cc1cc(N2CCN(C(=O)CCl)CC2)nc(C(C)C)n1] | 0 | 0 | -16.816 | -16.816 | 
6 | COc1ccc(NC(=O)CCl)cc1Cl [PCM-0102652, COc1ccc(NC(=O)CCl)cc1Cl] | 24 | 12 | -15.680 | -15.680 | 
7 | O=C(CCl)Nc1cccnc1 [PCM-0102653, O=C(CCl)Nc1cccnc1] | 0 | 0 | -16.863 | -16.863 | 
8 | CCNC(=O)NC(=O)CCl [PCM-0102654, CCNC(=O)NC(=O)CCl] | 0 | 0 | -16.588 | -16.588 | 
9 | O=C(CCl)N1CCC(C(=O)N2CCCC2)CC1 [PCM-0102655, O=C(CCl)N1CCC(C(=O)N2CCCC2)CC1] | 0 | 0 | -15.795 | -15.795 | 
10 | CCOC(=O)C1CCN(C(=O)CCl)CC1 [PCM-0102656, CCOC(=O)C1CCN(C(=O)CCl)CC1] | 0 | 0 | -15.523 | -15.523 | 
11 | O=C(CCl)Nc1ccccc1 [PCM-0102658, O=C(CCl)Nc1ccccc1] | 0 | 0 | -16.281 | -16.281 | 
12 | O=C(CCl)N1N=C(c2ccco2)CC1c1ccsc1 (centres unmarked) [PCM-0102659, O=C(CCl)N1N=C(c2ccco2)CC1c1ccsc1] | 0 | 39 | -14.828 | -14.828 | 
13 | Cc1ccc(CNC(=O)CCl)cc1 [PCM-0102660, Cc1ccc(CNC(=O)CCl)cc1] | 63 | 0 | -16.571 | -16.571 | 
14 | O=C(CCl)Nc1ccc2c(c1)CCC2 [PCM-0102662, O=C(CCl)Nc1ccc2c(c1)CCC2] | 14 | 12 | -16.202 | -16.202 | 
15 | CC1CCCC(NC(=O)CCl)C1C (centres unmarked) [PCM-0102663, CC1CCCC(NC(=O)CCl)C1C] | 29 | 0 | -16.862 | -16.862 | 
16 | CC(C#N)(NC(=O)CCl)C1CC1 (centres unmarked) [PCM-0102664, CC(C#N)(NC(=O)CCl)C1CC1] | 0 | 0 | -16.170 | -16.170 | 
17 | Cc1cc(NC(=O)CCl)n(-c2ccc(F)cc2)n1 [PCM-0102665, Cc1cc(NC(=O)CCl)n(-c2ccc(F)cc2)n1] | 53 | 0 | -15.905 | -15.905 | 
18 | CC1CCC2(CC1)NC(=O)N(NC(=O)CCl)C2=O (centres unmarked) [PCM-0102666, CC1CCC2(CC1)NC(=O)N(NC(=O)CCl)C2=O] | 0 | 0 | -17.364 | -17.364 | 

Row | SMILES | OTUB2 % labeling (OTUB2) [%] | NUDT7 % labeling (NUDT7) [%] | ln(avg k) [1, 2] | ln(avg k) [1, 3] | ln(avg k) [1, 4]
19 | CN(C(=O)CCl)c1ccc([N+](=O)[O-])cc1 [PCM-0102669, CN(C(=O)CCl)c1ccc([N+](=O)[O-])cc1] | 0 | 14 | -15.479 | -15.479 | 
20 | O=C(CCl)Nc1ccc(N2CCCC2)cc1 [PCM-0102670, O=C(CCl)Nc1ccc(N2CCCC2)cc1] | 48 | 0 | -13.297 | -13.297 | 
21 | O=C(CCl)NCc1ccco1 [PCM-0102671, O=C(CCl)NCc1ccco1] | 35 | 0 | -16.464 | -16.464 | 
22 | CN(Cc1ccco1)C(=O)CCl [PCM-0102672, CN(Cc1ccco1)C(=O)CCl] | 0 | 10 | -15.763 | -15.763 | 
23 | O=C(CCl)N1CCCC(C(F)(F)F)C1 (centres unmarked) [PCM-0102676, O=C(CCl)N1CCCC(C(F)(F)F)C1] | 0 | 14 | -15.616 | -15.616 | 
24 | CN(Cc1cc(Cl)cc(Cl)c1)C(=O)CCl [PCM-0102678, CN(Cc1cc(Cl)cc(Cl)c1)C(=O)CCl] | 0 | 45 | -15.789 | -15.789 | 
25 | O=C(CCl)N1CCCC1c1ccsc1 (centres unmarked) [PCM-0102693, O=C(CCl)N1CCCC1c1ccsc1] | 0 | 20 | -15.634 | -15.634 | 
26 | O=C(CCl)Nc1cccc(C(=O)O)c1 [PCM-0102696, O=C(CCl)Nc1cccc(C(=O)O)c1] | 11 | 0 | -16.586 | -16.586 | 
27 | CC1CC(=O)Nc2ccccc2N1C(=O)CCl (centres unmarked) [PCM-0102697, CC1CC(=O)Nc2ccccc2N1C(=O)CCl] | 0 | 22 | -15.686 | -15.686 | 
28 | O=C(CCl)Nc1nc2ccccc2s1 [PCM-0102698, O=C(CCl)Nc1nc2ccccc2s1] | 7 | 83 | -15.845 | -15.845 | 
29 | Cc1cc(NC(=O)CCl)n(-c2ccccc2C)n1 [PCM-0102699, Cc1cc(NC(=O)CCl)n(-c2ccccc2C)n1] | 0 | 0 | -15.949 | -15.949 | 
30 | N#Cc1ccc(Cl)cc1NC(=O)CCl [PCM-0102700, N#Cc1ccc(Cl)cc1NC(=O)CCl] | 17 | 40 | -16.148 | -16.148 | 
31 | CCCNC(=O)NC(=O)CCl [PCM-0102702, CCCNC(=O)NC(=O)CCl] | 22 | 0 | -16.357 | -16.357 | 
32 | CN(C(=O)CCl)C1CCCc2ccccc21 (centres unmarked) [PCM-0102703, CN(C(=O)CCl)C1CCCc2ccccc21] | 0 | 30 |  | -15.771 | -15.771
33 | O=C(CCl)N1CCN(S(=O)(=O)c2ccc(Cl)cc2)CC1 [PCM-0102704, O=C(CCl)N1CCN(S(=O)(=O)c2ccc(Cl)cc2)CC1] | 0 | 25 |  | -15.137 | -15.137
34 | O=C(CCl)NCC12CC3CC(CC(C3)C1)C2 [PCM-0102706, O=C(CCl)NCC12CC3CC(CC(C3)C1)C2] | 65 | 0 |  | -16.508 | -16.508
35 | Cc1ccccc1CN(C)C(=O)CCl [PCM-0102707, Cc1ccccc1CN(C)C(=O)CCl] | 0 | 13 |  | -15.717 | -15.717
